We go through 3 molecules from paper PMC5663708, “Novel Benzylidene Thiazolidinedione Derivatives as Partial PPARγ Agonists and their Antidiabetic Effects on Type 2 Diabetes” (Scientific Reports, 2017).

Each structure is given as a SMILES string.

Assay [1] has as its system STZ-NA-induced diabetic rats. The experiment in a line: Antidiabetic activity in STZ-NA-induced type 2 diabetic rats. Here is the method:
The test dose was fixed based on the predicted LD50 value. […] Diabetic rats were orally treated with the test compounds at a dose of 36 mg/kg body weight for a period of 15 days. Fasting blood glucose of control, diabetic-untreated and diabetic-treated rats were tested on Days 1, 3, 7 and 15 of the treatment period (Fig. 6A).
Male Wistar strain rats weighing about 160–200 g were used for animal studies. […] Rats were provided with rodent diet and water ad libitum. […] The animals were allowed to drink 5% glucose solution overnight to prevent STZ-NA-induced hypoglycemia[82],[83]. The rats were considered as diabetic if their blood glucose levels were above 250 mg/dL on the 3rd day after STZ-NA injection. The rats were divided into four groups of six animals in each group. Control animals received normal saline (Group I). Diabetic rats received STZ-NA injection (Group II). […] The blood glucose level of each group was checked at 1, 3, 7 and 15 Day by withdrawing blood from tail vein of the animal using glucose meter (ACCu-Chek active, Roche, Diagnostics USA).
After pharmacological screening for antidiabetic activity, the animals were subjected to overnight fasting and blood was collected from retro-orbital region under light anaesthesia for performing various biochemical experiments. All the biochemical experiments were performed using commercially available kits. Total Hb was estimated by cyanomethaemoglobin method, while HbA1c was estimated from whole blood using commercially available kits following the manufacturer guidelines (ERBA Diagnostics Inc, Accurex Biomedical Pvt. Ltd., Coral clinical systems, India). TG concentration was determined by GPO-POD enzymatic-colorimetric method. TC level was measured by the end point, CHOD-POD colorimetric methods. HDL-C was assayed by the method reported earlier. VLDL-C and LDL-C in plasma were calculated by the Friedewald formula: VLDL-C = TG/5; LDL-C = TC-(HDL-C + VLDL-C)[88]. Levels of serum urea, uric acid, and creatinine were measured using commercially available kits[89].
Rats were sacrificed under light anesthesia using diethylether at the end of the pharmacological and biochemical studies. […] Then, the tissue was sliced out into sections of 5 µm thickness by a rotator microtome and stained with hematoxylin-eosin. Obtained sections were examined by a Leica DME microscope, and representative photomicrographs were taken by a 7.1 megapixel Canon Power Shot S70 digital camera.

Assay [2] has as its system NIH/3T3 mouse embryonic fibroblast cells. Description: XTT cytotoxicity assay on NIH/3T3 cells. Particulars: Mus musculus, NIH3T3, 24 h. Here is the method: XTT is reduced to soluble formazan by this enzyme and formazan is quantified and directly proportional to the number of viable cells. […] NIH/3T3 cells were seeded at 1 × 10^4 cells into each well of 96-well plates. […] The XTT assay (Xenometrix, Allschwil, Switzerland) was performed according to the manufacturer’s instructions, after 24 h incubation with the compounds. The absorbance was determined after 2 h incubation at 480 nm with a reference wavelength of 680 nm using a microplate reader (BioTek, USA). […] The stock solutions of the compounds were prepared in DMSO and further dilutions were made with fresh culture medium. The final DMSO concentration was under 0.1%. Rosiglitazone and Pioglitazone were used as positive controls. All data were obtained from 3 independent experiments in quadruplicates.
On the technique in general: Formazan colour is commonly taken as a measure of viable cells.

A further assay addresses T1, human PPARγ (hPPARγ) (Homo sapiens, UniProt P37231).
T1 construct: expressed in transfected cells; host or cells: HepG2 (human hepatoblastoma), transient calcium phosphate transfection
T1 sequence (P37231 238-503 limits assumed): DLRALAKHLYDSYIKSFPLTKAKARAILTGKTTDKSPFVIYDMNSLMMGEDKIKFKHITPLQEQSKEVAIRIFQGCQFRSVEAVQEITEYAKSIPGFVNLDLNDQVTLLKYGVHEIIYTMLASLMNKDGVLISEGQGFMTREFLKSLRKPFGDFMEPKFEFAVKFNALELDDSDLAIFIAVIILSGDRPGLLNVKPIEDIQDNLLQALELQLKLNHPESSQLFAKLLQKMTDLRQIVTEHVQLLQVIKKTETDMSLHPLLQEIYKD
The arrangement: method as in earlier work. Particulars: PPARγ activity of metaglidasen; cited from earlier work.

One may read the IC50 as the point on the concentration scale where inhibition reaches its midpoint. As to `CCc1ccc(CCOc2ccc(CC3SC(=O)NC3=O)cc2)nc1` (stereo not shown) [Pioglitazone, reference compound], in assay [1] (36 mg/kg oral, 15 days, vs diabetic control rats), the blood glucose levels result was “significantly reduced”. The Hb levels result in assay [1] (36 mg/kg oral, 15 days, vs disease control (STZ + NA)) is given as “significant increase”. Moreover, in assay [1] (36 mg/kg, light microscopy, hematoxylin-eosin), the “histological changes of pancreas (islets, β-cells)” value is recorded as “restored to near normal”. For the same molecule, the concentration for half-maximal inhibition (IC50) in assay [2] is greater than 1000 µM.

What is called EC50 is the concentration that produces a half-maximal response. Consider `CC(=O)NCCOC(=O)[C@H](Oc1cccc(C(F)(F)F)c1)c1ccc(Cl)cc1` [metaglidasen], for which, at human PPARγ (hPPARγ), the concentration giving a half-maximal response (EC50) was roughly 10 µM and the Emax entry was “around 10%”.

As to `CN(CCOc1ccc(CC2SC(=O)NC2=O)cc1)c1ccccn1` (stereo not shown) [Rosiglitazone, reference compound], the IC50 in assay [2] was found to be 662 ± 18 µM.
